Experimental data taken from ChEMBL document CHEMBL1150091, “Cytotoxic compounds from a two-sponge association” (J Nat Prod, 1995).
In brackets after ≈: the same amount, converted by molar mass. Activity calls are given as the source filed them. No cut-off for these calls is given here.

Legend:
[1] = species: Rattus norvegicus; experiment: Inhibition of NADH dehydrogenase and oxidase activity of electron transport protein complex 1 in rat […] assessed as blockade of reduction-oxidation process; assay type: cell membranes
[2] = tested on: Nucleic Acid; experiment: Induction of strand scission activity in bacteriophage X174RF1 DNA infected in Escherichia coli; assay type: nucleic-acid assay; details: unidentified phage
[3] = tested on: Mus musculus; experiment: (§1) Toxicity in ip dosed mouse; assay type: organism-based; details: in vivo
[4] = tested on: P388; experiment: Cytotoxicity against mouse P388 cells; assay type: functional; details: read-out: LC50 (the source's name)
[5] = Toxicity in Artemia salina; assay type: organism-based; details: in vivo
[6] = tested on: EKVX; experiment: Cytotoxicity against human EKVX cells; assay type: functional; details: read-out: LC50 (the source's name)
[7] = tested on: HOP-62; experiment: Cytotoxicity against human HOP62 cells; assay type: functional; details: read-out: LC50 (the source's name)
[8] = tested on: HOP-92; experiment: Cytotoxicity against human HOP92 cells; assay type: functional; details: read-out: LC50 (the source's name)
[9] = tested on: COLO 205; experiment: Cytotoxicity against human COLO205 cells; assay type: functional; details: read-out: LC50 (the source's name)
[10] = tested on: HCT-116; experiment: Cytotoxicity against human HCT116 cells; assay type: functional; details: read-out: LC50 (the source's name)
[11] = tested on: SF-268; experiment: Cytotoxicity against human SF268 cells; assay type: functional; details: read-out: LC50 (the source's name)
[12] = tested on: SF-295; experiment: Cytotoxicity against human SF295 cells; assay type: functional; details: read-out: LC50 (the source's name)
[13] = tested on: Malme-3M; experiment: Cytotoxicity against human MALME-3M cells; assay type: functional; details: read-out: LC50 (the source's name)
[14] = tested on: M14; experiment: Cytotoxicity against human M14 cells; assay type: functional; details: read-out: LC50 (the source's name)
[15] = tested on: SK-MEL-28; experiment: Cytotoxicity against human SK-MEL-28 cells; assay type: functional; details: read-out: LC50 (the source's name)
[16] = tested on: SK-MEL-5; experiment: Cytotoxicity against human SK-MEL-5 cells; assay type: functional; details: read-out: LC50 (the source's name)
[17] = tested on: IGROV-1; experiment: Cytotoxicity against human IGROV1 cells; assay type: functional; details: read-out: LC50 (the source's name)
[18] = tested on: OVCAR-3; experiment: Cytotoxicity against human OVCAR-3 cells; assay type: functional; details: read-out: LC50 (the source's name)
[19] = tested on: A498; experiment: Cytotoxicity against human A498 cells; assay type: functional; details: read-out: LC50 (the source's name)
[20] = tested on: CAKI-1; experiment: Cytotoxicity against human Caki1 cells; assay type: functional; details: read-out: LC50 (the source's name)
[21] = tested on: RXF 393; experiment: Cytotoxicity against human […] cells; assay type: functional; details: read-out: LC50 (the source's name)
[22] = tested on: TK-10; experiment: Cytotoxicity against human TK10 cells; assay type: functional; details: read-out: LC50 (the source's name)
[23] = tested on: UO-31; experiment: Cytotoxicity against human UO31 cells; assay type: functional; details: read-out: LC50 (the source's name)
[24] = Cytotoxicity against human Hs 578T cells; assay type: functional; details: read-out: LC50 (the source's name)
[25] = tested on: BT-549; experiment: Cytotoxicity against human BT549 cells; assay type: functional; details: read-out: LC50 (the source's name)
[26] = tested on: CCRF-CEM; experiment: Cytotoxicity against human CCRF-CEM cells; assay type: functional; details: read-out: LC50 (the source's name)
[27] = tested on: HL-60(TB); experiment: Cytotoxicity against human HL-60(TB) cells; assay type: functional; details: read-out: LC50 (the source's name)
[28] = tested on: K562; experiment: Cytotoxicity against human K562 cells; assay type: functional; details: read-out: LC50 (the source's name)
[29] = tested on: MOLT-4; experiment: Cytotoxicity against human MOLT4 cells; assay type: functional; details: read-out: LC50 (the source's name)
[30] = Cytotoxicity against human […] cells; assay type: functional; details: read-out: LC50 (the source's name)
[31] = tested on: SR; experiment: Cytotoxicity against human SR cells; assay type: functional; details: read-out: LC50 (the source's name)
[32] = tested on: A549; experiment: Cytotoxicity against human A549 cells; assay type: functional; details: read-out: LC50 (the source's name)
[33] = tested on: NCI-H226; experiment: Cytotoxicity against human NCI-H226 cells; assay type: functional; details: read-out: LC50 (the source's name)
[34] = tested on: NCI-H23; experiment: Cytotoxicity against human NCI-H23 cells; assay type: functional; details: read-out: LC50 (the source's name)
[35] = tested on: NCI-H322M; experiment: Cytotoxicity against human NCI-H322M cells; assay type: functional; details: read-out: LC50 (the source's name)
[36] = tested on: NCI-H460; experiment: Cytotoxicity against human NCI-H460 cells; assay type: functional; details: read-out: LC50 (the source's name)
[37] = tested on: NCI-H522; experiment: Cytotoxicity against human NCI-H522 cells; assay type: functional; details: read-out: LC50 (the source's name)
[38] = tested on: HCC 2998; experiment: Cytotoxicity against human HCC2998 cells; assay type: functional; details: read-out: LC50 (the source's name)
[39] = tested on: HCT-15; experiment: Cytotoxicity against human HCT15 cells; assay type: functional; details: read-out: LC50 (the source's name)
[40] = tested on: HT-29; experiment: Cytotoxicity against human HT-29 cells; assay type: functional; details: read-out: LC50 (the source's name)
[41] = tested on: KM12; experiment: Cytotoxicity against human KM12 cells; assay type: functional; details: read-out: LC50 (the source's name)
[42] = tested on: SW-620; experiment: Cytotoxicity against human SW620 cells; assay type: functional; details: read-out: LC50 (the source's name)
[43] = tested on: SF-539; experiment: Cytotoxicity against human SF539 cells; assay type: functional; details: read-out: LC50 (the source's name)
[44] = tested on: SNB-19; experiment: Cytotoxicity against human SNB19 cells; assay type: functional; details: read-out: LC50 (the source's name)
[45] = tested on: U-251; experiment: Cytotoxicity against human U251 cells; assay type: functional; details: read-out: LC50 (the source's name)
[46] = tested on: LOX IMVI; experiment: Cytotoxicity against human LOXIMVI cells; assay type: functional; details: read-out: LC50 (the source's name)
[47] = tested on: SK-MEL-2; experiment: Cytotoxicity against human SK-MEL-2 cells; assay type: functional; details: read-out: LC50 (the source's name)
[48] = tested on: UACC-257; experiment: Cytotoxicity against human UACC257 cells; assay type: functional; details: read-out: LC50 (the source's name)
[49] = tested on: UACC-62; experiment: Cytotoxicity against human UACC62 cells; assay type: functional; details: read-out: LC50 (the source's name)
[50] = tested on: OVCAR-4; experiment: Cytotoxicity against human OVCAR4 cells; assay type: functional; details: read-out: LC50 (the source's name)
[51] = tested on: OVCAR-5; experiment: Cytotoxicity against human OVCAR5 cells; assay type: functional; details: read-out: LC50 (the source's name)
[52] = tested on: OVCAR-8; experiment: Cytotoxicity against human OVCAR8 cells; assay type: functional; details: read-out: LC50 (the source's name)
[53] = tested on: SK-OV-3; experiment: Cytotoxicity against human SKOV3 cells; assay type: functional; details: read-out: LC50 (the source's name)
[54] = tested on: 786-0; experiment: Cytotoxicity against human 786-0 cells; assay type: functional; details: read-out: LC50 (the source's name)
[55] = tested on: ACHN; experiment: Cytotoxicity against human ACHN cells; assay type: functional; details: read-out: LC50 (the source's name)
[56] = tested on: PC-3; experiment: Cytotoxicity against human PC3 cells; assay type: functional; details: read-out: LC50 (the source's name)
[57] = tested on: DU-145; experiment: Cytotoxicity against human DU145 cells; assay type: functional; details: read-out: LC50 (the source's name)
[58] = tested on: MCF7; experiment: Cytotoxicity against human MCF7 cells; assay type: functional; details: read-out: LC50 (the source's name)
[59] = Cytotoxicity against human MCF7/ADR cells; assay type: functional; details: NCI/ADR-RES, read-out: LC50 (the source's name)
[60] = tested on: MDA-MB-231; experiment: Cytotoxicity against human MDA-MB-231 cells; assay type: functional; details: read-out: LC50 (the source's name)
[61] = tested on: MDA-MB-435; experiment: Cytotoxicity against human MDA-MB-435 cells; assay type: functional; details: read-out: LC50 (the source's name)
[62] = tested on: MDA-N; experiment: Cytotoxicity against human MDA-N cells; assay type: functional; details: read-out: LC50 (the source's name)
[63] = tested on: T47D; experiment: Cytotoxicity against human T47D cells; assay type: functional; details: read-out: LC50 (the source's name)
[64] = as §1; assay type: organism-based; details: in vivo

CC1=C/[C@H](C)C[C@@]2(C)CC[C@@H](O2)[C@@]23CC[C@@](C)(C[C@@H](O2)[C@H]2O[C@](C)(CC2=O)[C@@H](O)[C@@H]2CC[C@@]4(CCC[C@H](O4)[C@@H](C)C(=O)O[C@@H]4C[C@@H]([C@@]5(O)OCC[C@@H](C)[C@H]5O)O[C@@H]4\C=C\1)O2)O3
Activity [1]: inactive
Activity [2]: inactive

COc1cccc2c1C(=O)c1c(O)c3c(c(O)c1C2=O)C[C@@](O)(C(=O)CO)C[C@@H]3O[C@H]1C[C@H](N)[C@H](O)[C@H](C)O1 [DOXORUBICIN]
LD50 [3]: 13 µg/mL

O=c1[nH]cc(F)c(=O)[nH]1 [FLUOROURACIL]
CC50 [4]: 0.2 µg/mL (≈ 1.54 µM)

CC1=C\[C@H](C)C[C@@]2(C)CC[C@@H](O2)[C@@]23CC[C@@](C)(C[C@@H](O2)[C@H]2O[C@](C)(CC2=O)[C@@H](O)[C@@H]2CC[C@@]4(CCC[C@H](O4)[C@@H](C)C(=O)O[C@@H]4C[C@@H]([C@@]5(O)OCC[C@@H](C)[C@H]5O)O[C@@H]4\C=C\1)O2)O3 [PECTENOTOXIN II]
LC50 [5]: < 0.1 µg/mL
CC50 [6]: 62 nM
CC50 [7]: 25.1 nM
CC50 [8]: 807 nM
CC50 [9]: 7.82 nM
CC50 [10]: 73.3 nM
CC50 [11]: 154 nM
CC50 [12]: 77.7 nM
CC50 [13]: 123 nM
CC50 [14]: 4.73 µM
CC50 [15]: 42.3 nM
CC50 [16]: 55.2 nM
CC50 [17]: 67.3 nM
CC50 [18]: 61.6 nM
CC50 [19]: 34.1 nM
CC50 [20]: 19.1 nM
CC50 [21]: 30 nM
CC50 [22]: 72.5 nM
CC50 [23]: 56.3 nM
CC50 [24]: 77.9 nM
CC50 [25]: 62.7 nM
CC50 [26]: > 10 µM
CC50 [27]: > 10 µM
CC50 [28]: > 10 µM
CC50 [29]: > 10 µM
CC50 [30]: > 10 µM
CC50 [31]: > 10 µM
CC50 [32]: > 10 µM
CC50 [33]: > 10 µM
CC50 [34]: > 10 µM
CC50 [35]: > 10 µM
CC50 [36]: > 10 µM
CC50 [37]: > 10 µM
CC50 [38]: > 10 µM
CC50 [39]: > 10 µM
CC50 [40]: > 10 µM
CC50 [41]: > 10 µM
CC50 [42]: > 10 µM
CC50 [43]: > 10 µM
CC50 [44]: > 10 µM
CC50 [45]: > 10 µM
CC50 [46]: > 10 µM
CC50 [47]: > 10 µM
CC50 [48]: > 10 µM
CC50 [49]: > 10 µM
CC50 [50]: > 10 µM
CC50 [51]: > 10 µM
CC50 [52]: > 10 µM
CC50 [53]: > 10 µM
CC50 [54]: > 10 µM
CC50 [55]: > 10 µM
CC50 [56]: > 10 µM
CC50 [57]: > 10 µM
CC50 [58]: > 10 µM
CC50 [59]: > 10 µM
CC50 [60]: > 10 µM
CC50 [61]: > 10 µM
CC50 [62]: > 10 µM
CC50 [63]: > 10 µM
LD50 [64]: 0.26 mg/kg

O=C(NCCSSCCNC(=O)/C(Cc1ccc(O)c(Br)c1)=N/O)/C(Cc1ccc(O)c(Br)c1)=N/O [PSAMMAPLIN A]
LC50 [5]: 4 µg/mL (≈ 6.02 µM)
CC50 [32]: 6.43 µg/mL
CC50 [4]: 0.64 µg/mL (≈ 0.963 µM)
